Source: the NIST ThermoML archive (doi:10.1016/j.fluid.2014.10.015)
Numbers after ± are expanded uncertainties.

Test: molar heat capacity at constant pressure
Details: 101.33 kPa, Liquid, Small sample (50 mg) DSC

CC(=O)[O-].CCCCn1cc[n+](C)c1 [1-butyl-3-methylimidazolium acetate]
Details	molar heat capacity at constant pressure [J/K/mol]
253.15 K	359.54 ± 22
258.15 K	361.57 ± 22
263.15 K	363.69 ± 22
268.15 K	365.9 ± 23
273.15 K	368.21 ± 23
278.15 K	370.61 ± 23
283.15 K	373.1 ± 23
293.15 K	378.36 ± 23
298.15 K	381.12 ± 23
303.15 K	383.98 ± 24
313.15 K	389.98 ± 24
323.15 K	396.35 ± 24
333.15 K	403.09 ± 25
343.15 K	410.2 ± 25
353.15 K	417.68 ± 26
363.15 K	425.53 ± 26
373.15 K	433.75 ± 27
383.15 K	442.34 ± 27
393.15 K	451.3 ± 28
403.15 K	460.63 ± 28
413.15 K	470.33 ± 29
